Paper PMC3985843 (Journal of the American Chemical Society, 2014)

Tests used:
Assay type in all cases: cell-based
[1] = tested on: P. falciparum 7G8 (CQR) strain; assay: in vitro antimalarial activity, chloroquine-resistant 7G8 strain; details: Plasmodium falciparum, 7G8, read-out: IC50 against 7G8
[2] = tested on: P. falciparum Dd2 (CQR) strain; assay: in vitro antimalarial activity, chloroquine-resistant Dd2 strain; details: Plasmodium falciparum, DD2, read-out: IC50 against Dd2
[3] = tested on: P. falciparum D6 (CQS) strain; assay: in vitro antimalarial activity, chloroquine-sensitive D6 strain; details: Plasmodium falciparum, D6, read-out: IC50 against D6

Row | SMILES | IC50 [1] | IC50 [2] | IC50 [3]
1 | CCN(CC)CCCC(C)Nc1ccnc2cc(Cl)ccc12 (stereo not drawn) [chloroquine] | 131 nM | 110 nM | 14.3 nM
2 | CO[C@@H]1CC(c2ccc[nH]2)=N[C@]12O[C@@H](C)C[C@@H]1CCCCCCCc3ccc([nH]3)[C@H]12 [compound 5, marineosin A] | 199 nM | 127 nM | 138 nM
